Values after ≈ are worked out from the molar mass of the structure shown.
Tested on: Spodoptera littoralis (Boisd.) 2nd and 4th instar larvae
Assay: Insecticidal bioassay screening (castor leaf dip, larval mortality)
Assay type: in vivo
Conditions: for Toxic ratio: fenoxycarb's LC50 / compound's LC50 × 100
Protocol: Five concentrations (200, 100, 50, 25, 12.5 ppm) were designed for this synthetic compound and the reference fenoxycarb compound as the dynamic ingredients based on ppm via diluting the commercial formulation.
In this experiment, castor leaves are immersed in each of the previously prepared concentrations of the components for 10 seconds and then left to dry for 60 minutes. Larvae of the second and fourth instars of each checked strain are prepared with treated leaves in gauze-covered glass containers for 72 hrs. An untreated control is made in which leaves are dipped in triton x-100 and distilled water only. Then the preserved leaves were removed & fresh, untreated leaves were provided for 72 hours. Three replicates (10 larvae each) were checked for each concentration. Daily inspection was carried out for all treatments and mortality percentages were recorded 3 days (72 hours) after treatment. The average mortality percentage was corrected employing Abbott's formula. The corrected mortality rate for each of the previously synthesized compounds is statistically calculated according to Finney (1970). Through this rate, the corresponding concentration test lines (LDP lines) are assessed. Fifty and ninety percent mortality are determined, and the regression values for the checked products were previously evaluated.

[1] = Spodoptera littoralis, foliar, 72 h, 2nd instar larvae of S. littoralis, after 72 h of treatment
[2] = Spodoptera littoralis, foliar, 72 h, 4th instar larvae of S. littoralis, after 72 h of treatment
[3] = Spodoptera littoralis, foliar, against Spodoptera littoralis under laboratory conditions (instar not given)

SMILES	Toxic ratio (2nd instar larvae, 72 h)	Toxic ratio (4th instar larvae, 72 h)	LC50 [1] [µg/mL]	LC50 [2] [µg/mL]	LC50 [3] [µg/mL]	activity against Spodoptera littoralis (in words) (compared with reference insecticide fenoxycarb)	LC50 (in vivo)
CCOC(=O)NCCOc1ccc(Oc2ccccc2)cc1 [Fenoxycarb, reference compound]	100	1	2.73 (≈ 9.06 µM)	43.2 (≈ 143 µM)	2.73 (≈ 9.06 µM)	–	–
O=C(O)c1cn(C2CC2)c2cc(N3CCN(CC(O)COc4ccc5ccccc5c4)CC3)c(F)cc2c1=O (stereo not shown) [Compound 7]	6.1	41.9	44.1 (≈ 82.9 µM)	103 (≈ 194 µM)	44.1 (≈ 82.9 µM)	active against Spodoptera littoralis	–
O=C(O)c1cn(C2CC2)c2cc(N3CCN(CC(O)COc4ccc5ccccc5c4)CC3)c(F)cc2c1=O (stereo not shown) [listing 1 of 2 here]	–	–	–	–	–	–	about 103.01 ppm
O=C(O)c1cn(C2CC2)c2cc(N3CCN(CC(O)COc4ccc5ccccc5c4)CC3)c(F)cc2c1=O (stereo not shown) [listing 2 of 2 here]	–	–	–	–	–	–	about 44.08 ppm

— US11905251B1, “1-cyclopropyl-6-fluoro-7-(4-(2-hydroxy-3-(naphthalen-2-yloxy)propylpiperazin-1-yl)-4-oxo-1,4-dihydroquinoline-3-carboxylic acid as an eco-friendly insecticidal agent against Spodoptera littoralis (boisd.)” (priority 2023, dated 2024)
